Test results published in patent US20110136730A1, “"Method for screening compounds comprising the use of picornavirus protease 2A"” (priority 2008, published 2011).

tested on: WT FMDV StopGo expressing construct in HEK-293 cells; assay type: cell-based, human

Compound	effect on the Renilla/firefly ratio of the WT StopGo expressing construct
C=C[C@]1(C)C[C@@H](OC(=O)CSC(C)(C)CNC(=O)[C@H](N)C(C)C)[C@]2(C)[C@H](C)CC[C@]3(CCC(=O)[C@H]32)[C@@H](C)[C@@H]1O [valnemulin]	do not affect StopGo
COc1ccc(C[C@H]2NC[C@H](O)[C@H]2OC(C)=O)cc1 [anisomycin]	do not affect StopGo
CO[C@H]1C[C@H](O[C@H]2[C@H](C)[C@@H](O[C@@H]3O[C@H](C)C[C@H](N(C)C)[C@H]3OC(C)=O)[C@@H](C)C[C@@]3(CO3)C(=O)[C@H](C)[C@@H](OC(C)=O)[C@@H](C)[C@@H](C)OC(=O)[C@@H]2C)O[C@@H](C)[C@@H]1OC(C)=O [troleandomycin]	do not affect StopGo
capromycin	do not affect StopGo
CC[C@H]1OC(=O)[C@H](C)[C@@H](O[C@H]2C[C@@](C)(OC)[C@@H](O)[C@H](C)O2)[C@H](C)[C@@H](O[C@@H]2O[C@H](C)C[C@H](N(C)C)[C@H]2O)[C@](C)(OC)C[C@@H](C)C(=O)[C@H](C)[C@@H](O)[C@]1(C)O [clarithromycin]	do not affect StopGo
gentamycin	do not affect StopGo
CCC[C@@H]1C[C@@H](C(=O)N[C@@H]([C@H]2O[C@H](SC)[C@H](O)[C@@H](O)[C@H]2O)[C@@H](C)O)N(C)C1 [lincomycin]	do not affect StopGo
CC[C@H]1OC(=O)C[C@@H](O)[C@H](C)[C@@H](O[C@@H]2O[C@H](C)[C@@H](O[C@H]3C[C@@](C)(O)[C@@H](O)[C@H](C)O3)[C@H](N(C)C)[C@H]2O)[C@@H](CC=O)C[C@@H](C)C(=O)/C=C/C(C)=C/[C@@H]1CO[C@@H]1O[C@H](C)[C@@H](O)[C@@H](OC)[C@H]1OC [tylosin]	do not affect StopGo
C=C[C@]1(C)C[C@@H](OC(=O)CSCCN(CC)CC)[C@]2(C)[C@H](C)CC[C@]3(CCC(=O)[C@H]32)[C@@H](C)[C@@H]1O [tiamulin]	do not affect StopGo
CC[C@H]1OC(=O)[C@H](C)[C@@H](O[C@H]2C[C@@](C)(OC)[C@@H](O)[C@H](C)O2)[C@H](C)[C@@H](O[C@@H]2O[C@H](C)C[C@H](N(C)C)[C@H]2O)[C@](C)(O)C[C@@H](C)CN(C)[C@H](C)[C@@H](O)[C@]1(C)O [azithromycin]	do not affect StopGo
C[C@H]1O[C@H](O[C@H]2[C@H](O)[C@@H](O)[C@@H](O)[C@H](O)[C@@H]2O)[C@@H](N)C[C@@H]1NC(=N)C(=O)O [kasugamycin]	do not affect StopGo
CCC[C@@H]1C[C@@H](C(=O)N[C@@H]([C@H]2O[C@H](SC)[C@H](O)[C@@H](O)[C@H]2O)[C@H](C)Cl)N(C)C1 [clindomygin]	do not affect StopGo
